{"source": "patent US9321782B2", "about": "“Process for preparation of novel 42-O-(heteroalkoxyalkyl) rapamicin compounds with anti-proliferative properties” (MERIL LIFE SCIENCES PVT. LTD., priority 2010, dated 2016)", "key": {"[1]": {"experiment": "Stability analysis (HPLC purity on storage) without BHT at various temperatures", "type": "physicochemical", "details": "for Purity (%): without BHT", "experimental": "(§1) To check the purity of the 42-O-(heteroalkoxyalkyl) rapamycin compounds the following condition was followed by using High Performance Liquid Chromatography, Phenomenex Synergi Hydro-RP 80a (250×4.6 ) mm, 4 micron column. The mobile phase was 65:15:20 methanol:acetonitile:water mixture. The detector was set at 276 nm and the flow rate was adjusted to 1.5 mL/min. Column temperature was 40° C. 2.0 μg of 42-O-(heteroalkoxyalkyl) rapamycin compounds was injected onto the column in a volume of 5.0 μL methanol with run time of 50 min.\nThe purity loss was higher at increased temperature, but there was no apparent change in the impurity profile. Table 2A presents the purity of various 42-O-(heteroalkoxyalkyl) rapamycin compounds at different time intervals and temperature conditions."}, "[2]": {"experiment": "Stability analysis (HPLC purity on storage) with various concentrations of BHT at 40° C.", "type": "physicochemical", "details": "sealed container", "experimental": "as §1\nThe inventors have also conducted the stability study of various 42-O-(heteroalkoxyalkyl) rapamycin compounds as mentioned above using various BHT concentrations. The study was conducted at 40° C. temperature in sealed container for 8 weeks.\n42-O-(heteroalkoxyalkyl) rapamycin compounds obtained as per procedure described in Example 1 are respectively added with anti-oxidant, namely Butylated Hydroxytoluene (or BHT), at a concentration of 0.1%, 0.2%, 0.5%, and 1.0% (w/w) based on 100% (w/w) of 42-O-(heteroalkoxyalkyl) rapamycin compounds in sealed container to study the stability at 40° C. temperature. […] The purity data with the addition of different amounts of anti-oxidant as added to 42-O-(tetrahydrofuran-3-yl) rapamycin compound, 42-O-(oxetan-3-yl) rapamycin compound and 42-O-(tetrahydropyran-3-yl) rapamycin compound checked at different time intervals are summarized in Table 2B as below mentioned."}, "[3]": {"system": "L-929 (ATCC cell lines CCL-1, NCTC clone 929) Mus musculus mouse fibroblast cells", "experiment": "In-vitro cytotoxicity test by extraction method", "type": "cell-based", "details": "extract in contact with L-929 cells for 48 hours", "experimental": "In-vitro assessment was done to check the cytotoxic or necrotic potential of the 42-O-(tetrahydrofuran-3-yl) rapamycin and 42-O-(oxetan-3-yl) rapamycin compounds by extraction method. In this study extracts of test substance were kept in contact with a multiple culture of L-929 (ATCC cell lines CCL-1, NCTC clone 929) Mus musculus mouse fibroblast cells for 48 hours. The cells were examined microscopically to assess the changes for its general morphology, vacuolization, detachment, cell lysis and membrane integrity."}, "rabbit blood [4]": {"system": "rabbit blood", "experiment": "In-vitro haemolysis test", "type": "cell-based", "details": "for Haemolytic Index, Mean ± S. D.: mean of three test extracts, rabbit blood, 4 hrs", "experimental": "Haemolysis test was conducted on rabbit blood by in-vitro method to check the haemolytic effect of 42-O-(tetrahydrofuran-3-yl) rapamycin (Merilimus-1) compound and 42-O-(oxetan-3-yl) rapamycin (Merilimus-2) compound. In this study the extracts of the test substances in triplicate were kept in contact with rabbit blood and incubated for 4 hrs. The concentration of plasma haemoglobin liberated in supernatant was calculated by comparing with absorbance of the standard solution in a spectrophotometer at 540 nm."}, "rabbit blood [5]": {"system": "rabbit blood", "experiment": "Haemocompatibility test (thrombosis, coagulation, platelet count, leucocyte count)", "type": "cell-based", "experimental": "Haemocompatibility test is conducted to evaluate biological safety of the blood contacting 42-O-([…]) rapamycin and 42-O-(oxetan-3-yl) rapamycin compounds for the medical device. The interaction of test substance with rabbit blood was checked for thrombosis, coagulation, platelet count and leucocyte count."}, "[6]": {"system": "human aorta smooth muscle cell cultures (hAoSMCs)", "experiment": "In-vitro anti-proliferative potency, BrdU assay, human smooth muscle cells", "type": "cell-based", "details": "BrdU incorporation, over 5 orders of magnitude concentration, compared with rapamycin", "excerpt": "(§2) In-vitro assessment of relative anti-proliferative effect of novel mTOR inhibitors 42-O-(oxetan-3-yl) rapamycin compound and 42-O-(tetrahydrofuran-3-yl) rapamycin compound with rapamycin was done on human and rabbit smooth muscle cell culture models. In which, human aorta and rabbit illiac artery smooth muscle cell cultures were subjected to increasing doses of 42-O-(oxetan-3-yl) rapamycin compound 42-O-(tetrahydrofuran-3-yl) rapamycin compound and rapamycin over 5 orders of magnitude concentration in the cell culture medium. The ability of the cell culture to reproduce was assessed after drug exposure by addition of a BromodeoxyUridine (BrdU) coloured reagent which causes a colour change in the surviving cells. The extent of colour development was quantified at 450 nm wavelength using a spectrophotometer microplate reader (BMG Labtech, FLUOstar OPTIMA). […] On the contrary, lower OD values reflect less incorporation on BrdU and a shift towards cell inhibition. Growth inhibition was calculated by subtracting positive control OD values, which represent 100% uninhibited growth."}, "[7]": {"system": "rabbit illiac artery smooth muscle cell cultures (RbIASMCs)", "experiment": "In-vitro anti-proliferative potency, BrdU assay, rabbit smooth muscle cells", "type": "cell-based", "details": "BrdU incorporation, over 5 orders of magnitude concentration, compared with rapamycin", "excerpt": "as §2"}, "[8]": {"details": "test group, individual rabbits No. 1-3"}}, "note": "Where “and” joins values, the source holds several entries; their conditions need not be identical. Identical values can stand only once.", "data": [{"compound": "COC1CC(C[C@H](C)[C@@H]2CC(=O)[C@H](C)/C=C(\\C)C(O)[C@@H](OC)C(=O)[C@H](C)C[C@H](C)/C=C/C=C/C=C(\\C)[C@@H](OC)C[C@@H]3CC[C@@H](C)[C@@](O)(O3)C(=O)C(=O)N3CCCC[C@H]3C(=O)O2)CCC1OC1COC1", "note": "(some centres unmarked) [Merilimus-2, 42-O-(oxetan-3-yl) rapamycin]", "values": [{"measurement": "Stability (in words)", "setting": "[1]; purified compounds without anti-oxidant", "result": "more thermally stable"}, {"measurement": "Purity (%)", "setting": "[1]; 5° C. (sealed), 00 weeks after synthesis", "result": 97.7, "unit": "%"}, {"measurement": "Purity (%)", "setting": "[1]; 5° C. (sealed), 02 weeks after synthesis", "result": 96.5, "unit": "%"}, {"measurement": "Purity (%)", "setting": "[1]; 5° C. (sealed), 04 weeks after synthesis", "result": 95.6, "unit": "%"}, {"measurement": "Purity (%)", "setting": "[1]; 5° C. (sealed), 08 weeks after synthesis", "result": 94.8, "unit": "%"}, {"measurement": "Purity (%)", "setting": "[1]; 5° C. (sealed), 12 weeks after synthesis", "result": 94.2, "unit": "%"}, {"measurement": "Purity (%)", "setting": "[1]; 25° C. (sealed), 00 weeks after synthesis", "result": 97.6, "unit": "%"}, {"measurement": "Purity (%)", "setting": "[1]; 25° C. (sealed), 02 weeks after synthesis", "result": 96.2, "unit": "%"}, {"measurement": "Purity (%)", "setting": "[1]; 25° C. (sealed), 04 weeks after synthesis", "result": 95.1, "unit": "%"}, {"measurement": "Purity (%)", "setting": "[1]; 25° C. (sealed), 08 weeks after synthesis", "result": 94.5, "unit": "%"}, {"measurement": "Purity (%)", "setting": "[1]; 25° C. (sealed), 12 weeks after synthesis", "result": 93.9, "unit": "%"}, {"measurement": "Purity (%)", "setting": "[1]; 25° C. (unsealed), 00 weeks after synthesis", "result": 97.3, "unit": "%"}, {"measurement": "Purity (%)", "setting": "[1]; 25° C. (unsealed), 02 weeks after synthesis", "result": 95.9, "unit": "%"}, {"measurement": "Purity (%)", "setting": "[1]; 25° C. (unsealed), 04 weeks after synthesis", "result": 94.8, "unit": "%"}, {"measurement": "Purity (%)", "setting": "[1]; 25° C. (unsealed), 08 weeks after synthesis", "result": 94.0, "unit": "%"}, {"measurement": "Purity (%)", "setting": "[1]; 25° C. (unsealed), 12 weeks after synthesis", "result": 93.6, "unit": "%"}, {"measurement": "Purity (%)", "setting": "[1]; 40° C. (sealed), 00 weeks after synthesis", "result": 97.3, "unit": "%"}, {"measurement": "Purity (%)", "setting": "[1]; 40° C. (sealed), 02 weeks after synthesis", "result": 95.5, "unit": "%"}, {"measurement": "Purity (%)", "setting": "[1]; 40° C. (sealed), 04 weeks after synthesis", "result": 94.6, "unit": "%"}, {"measurement": "Purity (%)", "setting": "[1]; 40° C. (sealed), 08 weeks after synthesis", "result": 93.6, "unit": "%"}, {"measurement": "Purity (%)", "setting": "[1]; 40° C. (sealed), 12 weeks after synthesis", "result": 92.7, "unit": "%"}, {"measurement": "Purity (%)", "setting": "[2]; BHT 0.0% (w/w), 0 week", "result": 97.3, "unit": "%"}, {"measurement": "Purity (%)", "setting": "[2]; BHT 0.0% (w/w), 2 weeks", "result": 95.5, "unit": "%"}, {"measurement": "Purity (%)", "setting": "[2]; BHT 0.0% (w/w), 4 weeks", "result": 94.6, "unit": "%"}, {"measurement": "Purity (%)", "setting": "[2]; BHT 0.0% (w/w), 8 weeks", "result": 93.6, "unit": "%"}, {"measurement": "Purity (%)", "setting": "[2]; BHT 0.1% (w/w), 0 week", "result": 97.7, "unit": "%"}, {"measurement": "Purity (%)", "setting": "[2]; BHT 0.1% (w/w), 2 weeks", "result": 97.5, "unit": "%"}, {"measurement": "Purity (%)", "setting": "[2]; BHT 0.1% (w/w), 4 weeks", "result": 97.5, "unit": "%"}, {"measurement": "Purity (%)", "setting": "[2]; BHT 0.1% (w/w), 8 weeks", "result": 97.5, "unit": "%"}, {"measurement": "Purity (%)", "setting": "[2]; BHT 0.2% (w/w), 0 week", "result": 97.6, "unit": "%"}, {"measurement": "Purity (%)", "setting": "[2]; BHT 0.2% (w/w), 2 weeks", "result": 97.6, "unit": "%"}, {"measurement": "Purity (%)", "setting": "[2]; BHT 0.2% (w/w), 4 weeks", "result": 97.5, "unit": "%"}, {"measurement": "Purity (%)", "setting": "[2]; BHT 0.2% (w/w), 8 weeks", "result": 97.5, "unit": "%"}, {"measurement": "Purity (%)", "setting": "[2]; BHT 0.5% (w/w), 0 week", "result": 97.6, "unit": "%"}, {"measurement": "Purity (%)", "setting": "[2]; BHT 0.5% (w/w), 2 weeks", "result": 97.5, "unit": "%"}, {"measurement": "Purity (%)", "setting": "[2]; BHT 0.5% (w/w), 4 weeks", "result": 97.4, "unit": "%"}, {"measurement": "Purity (%)", "setting": "[2]; BHT 0.5% (w/w), 8 weeks", "result": 97.4, "unit": "%"}, {"measurement": "Purity (%)", "setting": "[2]; BHT 1.0% (w/w), 0 week", "result": 97.6, "unit": "%"}, {"measurement": "Purity (%)", "setting": "[2]; BHT 1.0% (w/w), 2 weeks", "result": 97.5, "unit": "%"}, {"measurement": "Purity (%)", "setting": "[2]; BHT 1.0% (w/w), 4 weeks", "result": 97.4, "unit": "%"}, {"measurement": "Purity (%)", "setting": "[2]; BHT 1.0% (w/w), 8 weeks", "result": 97.4, "unit": "%"}, {"measurement": "Purity after eight-weeks of storage", "setting": "[2]; with various concentrations of BHT (concentration not given)", "result": 97.4, "unit": "%"}, {"measurement": "Toxic effect on cells (in words)", "setting": "[3]", "result": "did not reveal any toxic effect on cells"}, {"measurement": "Haemolytic Index", "setting": "rabbit blood [4]; individual test extracts 1-3, rabbit blood, incubated 4 hrs, = Haemoglobin released/Haemoglobin present × 100", "result": "1.9 (2×) and 2.0"}, {"measurement": "Haemolytic Index, Mean ± S. D.", "setting": "rabbit blood [4]", "result": "1.9 ± 0.02"}, {"measurement": "Haemolytic Index, Mean ± S. D.", "setting": "rabbit blood [4]; listed as 42-O-(oxetan-3-yl) rapamycin", "result": 1.9}, {"measurement": "Haemolytic nature (in words)", "setting": "rabbit blood [4]; on the basis of haemolytic index", "result": "non-haemolytic"}, {"measurement": "Haemocompatibility (in words)", "setting": "rabbit blood [5]; all haematological findings compared to control", "result": "haemocompatible"}, {"measurement": "Coagulation (PTT in sec.)", "setting": "rabbit blood [5]; [8]", "result": "36 sec. (2×) and 38 sec."}, {"measurement": "Differential leucocyte count: Basophile %", "setting": "rabbit blood [5]; [8]", "result": "00", "unit": "%"}, {"measurement": "Differential leucocyte count: Eosinophil %", "setting": "rabbit blood [5]; [8]", "result": "02% (2×) and 01%"}, {"measurement": "Differential leucocyte count: Lymphocyte %", "setting": "rabbit blood [5]; [8]", "result": "44% and 50% and 49%"}, {"measurement": "Differential leucocyte count: Monocyte %", "setting": "rabbit blood [5]; [8]", "result": "01", "unit": "%"}, {"measurement": "Differential leucocyte count: Neutrophil %", "setting": "rabbit blood [5]; [8]", "result": "55% and 48% (2×)"}, {"measurement": "Distribution of cells: Platelets", "setting": "rabbit blood [5]; [8]", "result": "Normal"}, {"measurement": "Distribution of cells: RBC", "setting": "rabbit blood [5]; [8]", "result": "Normal"}, {"measurement": "Distribution of cells: WBC", "setting": "rabbit blood [5]; [8]", "result": "Normal"}, {"measurement": "Leucocyte count", "setting": "rabbit blood [5]; [8]", "result": "7.5 Thousand/cmm (2×) and 6.5 Thousand/cmm"}, {"measurement": "Platelet count", "setting": "rabbit blood [5]; [8]", "result": "4.9 lakhs/cmm and 4.5 lakhs/cmm (2×)"}, {"measurement": "Thrombosis", "setting": "rabbit blood [5]; [8]", "result": "Nil"}, {"measurement": "Growth suppression of smooth muscle cells (in words)", "setting": "[6]", "result": "more effectively inhibited growth of smooth muscle cells than rapamycin"}, {"measurement": "Growth suppression of smooth muscle cells (in words)", "setting": "[7]", "result": "more effectively inhibited growth of smooth muscle cells than rapamycin"}]}]}
